Laboratory results: patent US9045563B2, “CXC chemokine receptor 4 (CXCR4) antagonistic polypeptide” (priority 2007, dated 2015)
Ends that are not written are not given here.

Assays:
CXCR4 = CXCR4 (Homo sapiens, UniProt P61073); assay: Ca2+ mobilization in CXCR4 expressing HEK293 cells (indo-1); type: cell-based; parameters: expressed in transfected cells
Method: Ca^2+ responses were recorded.
FIG. 17. CXCR4 antagonistic activities of ALB derivatives. […] CXCR4 or CCR5 expressing HEK293 cells were treated with CXCR4 agonist CXCL12 (10 nM) or CCR5 agonist CCL5 (20 nM), respectively, in the absence (no ALB) or presence of indicated ALB derivatives (50 μM). Calcium responses were recorded as described. Data shown are mean values±standard deviation derived from duplicates relative to peak calcium responses after treatment with agonists only (100%). […] CXCR4 expressing HEK293 cells were treated with Texas Red labeled CXCL12 (CXCL12-Tr) in the presence or absence of ALB peptides. Real-time fluorescence monitoring of ligand-receptor interactions was carried out as described. Shown are bound CXCL12-Tr levels in the presence of ALB peptides relative to CXCL12-Tr only treated cells (100% bound). Values were derived from a duplicate experiment.

[1] = tested on: Jurkat T cells expressing CXCR4; assay: CXCL12 mediated migration of Jurkat T cells, transwell; type: cell-based; conditions: 360 μg/ml, 2 h
Method: CXCL12-CXCR4 signaling plays a crucial role in several diseases such as HIV/AIDS, cancer, leukemia and arthritis. CXCL12 expressing organs, tissues or cells can attract CXCR4 expressing tumor cells and allow metastasis. To investigate whether ALB408-423 is able to inhibit CXCL12 mediated tumor cell migration, migration assays were performed using Jurkat T cells expressing CXCR4 as model system (Princen et al., 2004, J.Virol. 78: 12996-13006). Jurkat T cells were suspended at 0.4×106 (200 μl) in medium containing 10% FBS, then the cell suspension (200 μl) was added to the upper compartment of 5 μm pore filter devices (Transwell, 24-well cell culture, Costar). Then, 600?l culture medium with or without CXCL12 (100 ng/ml) was added to the lower compartment allowing attraction of cells from the upper compartment. […] After incubation, plates were removed and 100 μl of cells that migrated to the lower compartment were either counted directly using a counting chamber or analyzed using a proliferation assay (CellTiter-Glo® Reagent, PROMEGA) as recommended by the manufacturer. […]
FIG. 16. […] After 2 hrs incubation at 37° C., the number of migrated cells in the lower compartment was detected by measuring intracellular ATP levels using CellTiter-Glo® Luminescent Cell Viability Assay kit (PROMEGA). […]

CXCR1 = biological target: T1, CXCR1 (Homo sapiens, UniProt P25024); assay: Ca2+ mobilization in HEK EGFP-CXCR1 cells (indo-1); conditions: 50 μM peptide
T1 sequence (P25024 1-350): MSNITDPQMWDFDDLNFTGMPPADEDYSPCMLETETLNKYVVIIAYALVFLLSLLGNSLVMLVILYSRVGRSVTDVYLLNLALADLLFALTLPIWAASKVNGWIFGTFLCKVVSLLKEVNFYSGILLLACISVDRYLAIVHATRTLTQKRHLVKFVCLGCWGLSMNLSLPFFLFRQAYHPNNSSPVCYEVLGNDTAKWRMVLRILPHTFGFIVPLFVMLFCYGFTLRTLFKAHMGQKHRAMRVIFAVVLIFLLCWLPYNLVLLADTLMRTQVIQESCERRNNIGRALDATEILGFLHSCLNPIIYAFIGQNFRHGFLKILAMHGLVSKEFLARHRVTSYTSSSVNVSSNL
Method: Intracellular Ca^2+ release measurement was carried out as described (Palanche et al., 2001, JBC 276:34853-34861; Vollmer et al., 1999, JBC 274:37915-37922) using indo-1 acetoxymethyl ester as the calcium probe. Cellular responses were recorded at 37° C. in stirred 1 mL cuvette with excitation set at 355 nm and emission set at 405 nm and 475 nm using a spectrofluorimeter. The human chemokines CCL5 and CXCL8 were purchased from Becton Dickinson Biosciences (San Jose, Calif.).
Intracellular Ca^2+ responses were measured using a spectrofluorimeter.
Values shown are mean calcium peak responses from duplicate experiments relative to chemokine only treated cells (100%).
Ca^2+ responses were recorded. […] In order to gain insight into compound selectivity, we next characterized the effect of the peptide on calcium responses of various chemokine/receptor pairs.

CXCR4, sequence (P61073 whole entry): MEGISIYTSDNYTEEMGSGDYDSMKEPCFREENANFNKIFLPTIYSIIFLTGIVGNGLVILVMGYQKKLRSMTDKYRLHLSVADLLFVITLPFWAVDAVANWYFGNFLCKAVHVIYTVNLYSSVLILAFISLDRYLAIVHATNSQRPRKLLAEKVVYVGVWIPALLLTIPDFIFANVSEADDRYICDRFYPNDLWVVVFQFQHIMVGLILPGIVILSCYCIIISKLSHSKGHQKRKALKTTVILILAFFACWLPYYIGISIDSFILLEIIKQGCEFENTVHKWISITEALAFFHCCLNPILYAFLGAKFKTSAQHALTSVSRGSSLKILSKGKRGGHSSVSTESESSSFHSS

Sequence: LVRYTKKVPQVSTPTL [ALB408-423, LVRYTKKVPQVSTPTL]
- Ki (CXCR4): 46.4 µM
- inhibition of CXCL12-evoked calcium responses (CXCR4; 50 μM peptide, HEK EGFP-CXCR4 cells): 70%
- agonism: calcium response induced by the peptide alone, CXCR4 (CXCR4; 50 μM peptide, no chemokine): does not induce any calcium response
- block of CXCL12 induced cell migration [1]: almost completely
- effect on CXCL8-evoked calcium responses (CXCR1; HEK EGFP-CXCR1 cells): no effect
- agonism: calcium response induced by the peptide alone, CXCR1 (CXCR1; no chemokine): does not induce any calcium response
